Columns and labels:
[1] = test system: Mycobacterium tuberculosis; test: Killing kinetics in vitro (7H9 broth OD600, CFU on 7H11 agar); type: cell-based
Protocol: Mycobacterium tuberculosis strains were obtained from the culture collection of the Mycobacteriology Laboratory, Mackay Memorial Hospital, Taipei, Taiwan. The organisms were cultured on Lowenstein-Jensen medium slant at 37° C. in a 10% CO2 humidified atmosphere. In mid-log phase, the colonies were harvested and resuspended with PBS. The turbidity of suspension was adjusted to a McFarland 0.5 standard, containing approximately 1×10^8 bacteria/ml.
Strains were grown in 7H9 medium and the turbidity of suspension was adjusted to a McFarland 0.5 standard and used as inocula after ten-fold dilution in 7H9 medium with or without various concentrations of EZETIMIBE. The kinetics of bactericidal effect of EZETIMIBE was estimated by measuring the optical density at 600 nm at the indicated time points, followed by plating for colony formation unit (CFU) enumeration on 7H11 agar plates.

[2] = test system: M. tuberculosis internalization into monocytes; test: Internalization of M. tuberculosis by monocytes (flow cytometry); type: cell-based, Mycobacterium tuberculosis
Protocol: (§1) Peripheral blood mononuclear cells were isolated from whole blood by means of Ficoll-Paque gradient centrifugation. Monocytes were incubated with CD14 microbeads, after which the CD14-positive cells were separated out by a magnet. These cells were seeded in U-bottom 96-well plates at a density of 2×10^5 cells in a volume of 200 μl of PRMI-1640 medium with 10% FCS and cultured for 1 hour in the presence or absence of EZETIMIBE (resolved in alcohol). Next, 5×10^5 M. tuberculosis bacteria were added to each well, followed by incubation for 24 hours. Cell viability was tested by using trypan blue staining. In the post-treatment experiment, monocytes were infected with M. tuberculosis bacteria for 1 hour and then added with EZETIMIBE for another 24 hours. In the cholesterol supplement experiment, water soluble cholesterol (Sigma) was resolved in sterile deionized water and added into the culture medium with or without EZETIMIBE.
Infected monocytes described above receiving either EZETIMIBE or control were washed with PBS to remove unbound bacteria and fixed with 4% formalin for 24 hours at 4° C. Then cells were permeabilized by using permeabilization buffer and stained with fluorescein isothiocyanate-conjugated anti-M. tuberculosis antibody for 1 hour at 4° C. The fluorescence intensity of intracellular M. tuberculosis was than analyzed by flow cytometry. Stained cells were evaluated by FACS Calibur flow cytometer (BD Bioscience). Analysis was performed using CellQuest software (BD Bioscience).
As shown in FIGS. 2A-2D, the experiments were performed to assess whether the treatment of EZETIMIBE affected M. tuberculosis internalization into monocytes, and the monocytes were pretreated with EZETIMIBE for 24 hours or 48 hours.

[3] = test system: intracellular M. tuberculosis in monocytes; test: Intracellular survival of M. tuberculosis in monocytes (CFU assay); type: cell-based, Mycobacterium tuberculosis
[4] = biological target: T1, CD13 (Homo sapiens, UniProt P15144); test: CD13 expression on monocytes (antiCD13 antibody staining); type: cell-based; details: monocytes pretreated 24 or 48 hours, clones WM15 and WM47
T1 construct: whether the treatment of EZETIMIBE affected CD13 expression on monocytes; endogenous in cells; host or cells: monocytes

[5] = test system: monocytes; test: Cholesterol uptake of monocytes (nile red staining, flow cytometry); type: cell-based; details: cholesterol supplement 10 μg/ml
Protocol: as §1
A stock solution of nile red (1 mg/ml) in acetone was prepared and stored at 4° C. and protected from light. The nile red solution was added to the cell preparation (final concentration: 1 μg/ml) for 10 minutes and excess dye was washed away with PBS. Nile red fluorescence was examined at two spectral settings, yellow-gold fluorescence (FL1 channel, excitation, 488 nm; emission, 530±30 nm) for cytoplasmic neutral lipids and red fluorescence (FL2 channel, excitation, 488 nm; emission, 585±21 nm) for polar lipids, consist of phospholipids, other amphipathic lipids, and strongly hydrophobic proteins of cell membranes as reported. Stained cells were evaluated by FACS Calibur flow cytometer (BD Bioscience). Analysis was performed using CellQuest software (BD Bioscience).
As shown in FIGS. 5A-B, monocytes were infected with M. tuberculosis bacteria followed by treatment with EZETIMIBE for 24 hours. Nile red staining was used to assess the intracellular lipid droplets by flow cytometry. Nile red fluorescence was examined at two spectral settings, yellow-gold fluorescence (FL1 channel, excitation, 488 nm; emission, 530±30 nm) for cytoplasmic neutral lipids, included triglyceride, cholesterol, cholesterol esters and free fatty acid, and red fluorescence (FL2 channel, excitation, 488 nm; emission, 585±21 nm) for polar lipids. Significant increase fluorescence intensity of FL1 channel not FL2 channel was observed following cholesterol supplement (10 μg/ml) in monocytes culture without infection, and EZETIMIBE (10 μg/ml and 20 μg/ml) can inhibit the uptake of cholesterol by reducing the relative fluorescence of FL1 channel from 1.5 to 1.2 and 1.3, respectively.

[6] = test system: intracellular M. tuberculosis in monocytes; test: Intracellular survival of M. tuberculosis in monocytes with cholesterol supplement (CFU assay); type: cell-based, Mycobacterium tuberculosis; details: post-treatment 24 hours

T1 sequence (P15144 whole entry): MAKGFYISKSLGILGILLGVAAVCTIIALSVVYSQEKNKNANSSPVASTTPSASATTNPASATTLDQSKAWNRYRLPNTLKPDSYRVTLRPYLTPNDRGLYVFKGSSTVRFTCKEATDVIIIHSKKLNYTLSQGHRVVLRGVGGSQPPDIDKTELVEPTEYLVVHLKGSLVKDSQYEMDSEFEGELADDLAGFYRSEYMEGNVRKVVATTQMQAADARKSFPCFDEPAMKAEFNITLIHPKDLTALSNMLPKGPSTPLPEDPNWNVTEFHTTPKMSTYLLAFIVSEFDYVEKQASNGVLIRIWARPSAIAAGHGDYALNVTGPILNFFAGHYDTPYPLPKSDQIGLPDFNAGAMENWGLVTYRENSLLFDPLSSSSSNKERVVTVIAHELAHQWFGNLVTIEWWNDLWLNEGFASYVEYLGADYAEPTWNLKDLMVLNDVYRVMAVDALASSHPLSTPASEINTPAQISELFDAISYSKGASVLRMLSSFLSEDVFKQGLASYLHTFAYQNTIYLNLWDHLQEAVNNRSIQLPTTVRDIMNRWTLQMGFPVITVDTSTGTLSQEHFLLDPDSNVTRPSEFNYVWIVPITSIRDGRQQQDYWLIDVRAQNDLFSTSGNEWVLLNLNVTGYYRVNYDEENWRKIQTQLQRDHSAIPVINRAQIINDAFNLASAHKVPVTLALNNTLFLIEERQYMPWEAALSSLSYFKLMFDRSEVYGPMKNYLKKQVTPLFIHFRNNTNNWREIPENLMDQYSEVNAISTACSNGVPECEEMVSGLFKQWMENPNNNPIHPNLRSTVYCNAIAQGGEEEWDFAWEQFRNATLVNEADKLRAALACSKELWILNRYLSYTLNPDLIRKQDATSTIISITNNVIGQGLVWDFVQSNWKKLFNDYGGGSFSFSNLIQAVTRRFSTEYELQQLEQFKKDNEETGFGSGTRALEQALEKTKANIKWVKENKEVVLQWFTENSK

SMILES: O=C1[C@H](CC[C@H](O)c2ccc(F)cc2)[C@@H](c2ccc(O)cc2)N1c1ccc(F)cc1 [EZETIMIBE, (3R,4S)-1-(4-fluorophenyl)-3-[(3S)-3-(4-fluorophenyl)-3-hydroxypropyl]-4-(4-hydroxyphenyl)zetidin-2-one]
- colony-forming units (CFU) of Mycobacterium tuberculosis on 7H11 agar plate ([1]; 15 and 30 μg/ml for 72 hours, read at 3rd week (FIG. 1C)): significantly reduced
- M. tuberculosis survival in suspension with increasing amount of bacteria ([1]; FIG. 1B): inhibition on M. tuberculosis survival was found
- growth of Mycobacterium tuberculosis in 7H9 broth ([1]; increasing concentrations, 2nd and 3rd week (FIG. 1A)): inhibition effect on growth
- entry reduction of M. tuberculosis into monocytes ([2]; post-treatment of monocytes, 24 hours): up to 0.65%
- entry reduction of M. tuberculosis into monocytes ([2]; post-treatment of monocytes, 48 hours): ≤ 26.02%
- entry reduction of M. tuberculosis into monocytes ([2]; pre-treatment of monocytes, 48 hours): up to 18.28%
- CFU counts ([3]; post-treatment: infection 1 hour then 10 ng/ml for 24 hours, without drug 8320): 4090 per 10,000 cells
- CFU counts ([3]; post-treatment: infection 1 hour then 20 ng/ml for 24 hours, without drug 8320): 2858 per 10,000 cells
- CFU counts ([3]; pre-treatment 1 hour then infection 24 hours, 10 ng/ml, without drug 7358): 5880 per 10,000 cells
- CFU counts ([3]; pre-treatment 1 hour then infection 24 hours, 20 ng/ml, without drug 7358): 4000 per 10,000 cells
- CD13 expression on monocytes [4]: down-regulation of CD13 expression
- relative fluorescence of FL1 channel (nile red, neutral lipids) ([5]; M. tuberculosis infected monocytes, 24 hours, EZETIMIBE 10 μg/ml, without drug 1.4): 0.9
- relative fluorescence of FL1 channel (nile red, neutral lipids) ([5]; M. tuberculosis infected monocytes, 24 hours, EZETIMIBE 20 μg/ml, without drug 1.4): 1.0
- relative fluorescence of FL1 channel (nile red, neutral lipids) ([5]; monocytes without infection, EZETIMIBE 10 μg/ml, without drug 1.5): 1.2
- relative fluorescence of FL1 channel (nile red, neutral lipids) ([5]; monocytes without infection, EZETIMIBE 20 μg/ml, without drug 1.5): 1.3
- CFU counts ([6]; EZETIMIBE 10 μg/ml, cholesterol supplement 10 μg/ml, without drug 10600): 7692 per 10,000 cells
- CFU counts ([6]; EZETIMIBE 10 μg/ml, cholesterol supplement 20 μg/ml): 12545 per 10,000 cells
- CFU counts ([6]; EZETIMIBE 20 μg/ml, cholesterol supplement 10 μg/ml, without drug 10600): 4800 per 10,000 cells
- CFU counts ([6]; EZETIMIBE 20 μg/ml, cholesterol supplement 20 μg/ml): 10333 per 10,000 cells
